# Data reported in publication PMC10150366, “Discovery of an In Vivo Chemical Probe for BCL6 Inhibition by Optimization of Tricyclic Quinolinones” (Journal of Medicinal Chemistry, 2023).
# Key:
# kinase panel (468) [1] = molecular target: kinase panel (468) (Homo sapiens, UniProt P00519, H396P); assay: KINOMEscan scanMAX kinase panel (468); format: binding
# kinase panel (468) [2] = assay: KINOMEscan scanMAX kinase panel (468); format: binding; conditions: for Percent Control: 10000 nM
# EDNRA = molecular target: T1, EDNRA (Homo sapiens, UniProt P25101); assay: SAFETYscan Calcium Flux EDNRA Agonist; format: cell-based
# T1 sequence (P25101 21-427): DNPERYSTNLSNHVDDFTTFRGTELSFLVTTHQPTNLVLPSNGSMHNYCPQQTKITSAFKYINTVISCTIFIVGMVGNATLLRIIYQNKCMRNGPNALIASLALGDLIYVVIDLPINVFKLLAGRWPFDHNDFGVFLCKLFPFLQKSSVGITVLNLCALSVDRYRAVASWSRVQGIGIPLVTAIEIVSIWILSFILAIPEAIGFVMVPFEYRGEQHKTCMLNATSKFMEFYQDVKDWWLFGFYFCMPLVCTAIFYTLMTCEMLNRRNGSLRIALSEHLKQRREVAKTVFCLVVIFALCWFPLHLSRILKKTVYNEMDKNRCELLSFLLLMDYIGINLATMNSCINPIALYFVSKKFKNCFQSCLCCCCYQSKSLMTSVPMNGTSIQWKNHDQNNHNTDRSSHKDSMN
# Excerpt: (§1) Supplement jm3c00155_si_002.xlsx, sheet "SAFETYScan" | column: RC50 (uM); Max Response
# HTR2B = HTR2B (Homo sapiens, UniProt P41595); assay: SAFETYscan Calcium Flux HTR2B Antagonist; format: cell-based
# Chain of HTR2B (P41595 whole entry): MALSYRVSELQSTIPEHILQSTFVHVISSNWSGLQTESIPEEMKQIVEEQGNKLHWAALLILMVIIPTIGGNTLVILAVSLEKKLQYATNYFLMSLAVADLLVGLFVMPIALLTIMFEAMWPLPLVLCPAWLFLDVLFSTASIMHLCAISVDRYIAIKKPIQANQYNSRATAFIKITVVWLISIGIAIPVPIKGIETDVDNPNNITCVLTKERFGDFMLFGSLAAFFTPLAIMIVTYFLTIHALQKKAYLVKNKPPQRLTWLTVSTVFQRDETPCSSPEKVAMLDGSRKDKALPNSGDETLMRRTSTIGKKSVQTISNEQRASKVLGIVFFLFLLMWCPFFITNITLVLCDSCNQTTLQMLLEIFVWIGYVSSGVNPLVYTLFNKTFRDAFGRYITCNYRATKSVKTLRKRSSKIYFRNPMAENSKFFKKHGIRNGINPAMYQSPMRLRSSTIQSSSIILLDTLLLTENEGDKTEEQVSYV
# Excerpt: as §1
# DRD1 [3] = molecular target: T2, DRD1 (Homo sapiens, UniProt P21728); assay: SAFETYscan cAMP DRD1 Agonist; format: cell-based
# T2 sequence (P21728 whole entry): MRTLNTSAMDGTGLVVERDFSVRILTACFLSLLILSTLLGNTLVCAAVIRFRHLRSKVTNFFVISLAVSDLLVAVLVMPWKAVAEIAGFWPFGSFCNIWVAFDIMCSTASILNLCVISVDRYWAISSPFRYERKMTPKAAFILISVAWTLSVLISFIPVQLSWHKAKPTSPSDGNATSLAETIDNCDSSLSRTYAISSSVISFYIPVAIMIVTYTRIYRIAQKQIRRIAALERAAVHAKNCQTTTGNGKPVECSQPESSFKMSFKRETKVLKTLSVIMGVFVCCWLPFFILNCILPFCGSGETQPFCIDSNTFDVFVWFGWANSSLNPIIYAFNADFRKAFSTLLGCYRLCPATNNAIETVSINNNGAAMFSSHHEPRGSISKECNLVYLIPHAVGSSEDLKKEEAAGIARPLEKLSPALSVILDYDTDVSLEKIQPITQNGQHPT
# Excerpt: as §1
# HTR1A = molecular target: T3, HTR1A (Homo sapiens, UniProt P08908); assay: SAFETYscan cAMP HTR1A Agonist; format: cell-based
# T3 sequence (P08908 1-422): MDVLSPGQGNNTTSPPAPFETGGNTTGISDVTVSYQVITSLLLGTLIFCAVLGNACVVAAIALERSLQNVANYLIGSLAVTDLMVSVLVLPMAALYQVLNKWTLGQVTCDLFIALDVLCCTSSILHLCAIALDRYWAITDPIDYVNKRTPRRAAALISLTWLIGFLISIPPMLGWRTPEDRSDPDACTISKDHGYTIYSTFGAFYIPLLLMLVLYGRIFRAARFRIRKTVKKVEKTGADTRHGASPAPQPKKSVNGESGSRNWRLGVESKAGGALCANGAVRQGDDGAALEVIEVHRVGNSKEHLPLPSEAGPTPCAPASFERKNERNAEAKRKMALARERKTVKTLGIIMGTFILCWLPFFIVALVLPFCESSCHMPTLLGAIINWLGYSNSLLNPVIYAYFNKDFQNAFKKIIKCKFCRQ
# Excerpt: as §1
# OPRD1 = OPRD1 (Homo sapiens, UniProt P41143); assay: SAFETYscan cAMP OPRD1 Agonist; format: cell-based
# Chain of OPRD1 (P41143 whole entry): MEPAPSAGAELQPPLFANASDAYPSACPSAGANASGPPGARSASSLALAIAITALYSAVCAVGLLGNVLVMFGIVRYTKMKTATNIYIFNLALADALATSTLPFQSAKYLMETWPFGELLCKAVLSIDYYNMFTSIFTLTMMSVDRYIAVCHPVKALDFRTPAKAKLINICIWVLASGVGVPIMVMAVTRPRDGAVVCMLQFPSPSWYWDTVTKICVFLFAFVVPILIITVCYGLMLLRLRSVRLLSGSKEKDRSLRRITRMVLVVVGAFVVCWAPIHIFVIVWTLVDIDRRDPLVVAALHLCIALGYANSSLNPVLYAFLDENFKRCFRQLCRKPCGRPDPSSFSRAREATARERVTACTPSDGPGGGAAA
# Excerpt: as §1
# OPRK1 = OPRK1 (Homo sapiens, UniProt P41145); assay: SAFETYscan cAMP OPRK1 Agonist; format: cell-based
# Chain of OPRK1 (P41145 whole entry): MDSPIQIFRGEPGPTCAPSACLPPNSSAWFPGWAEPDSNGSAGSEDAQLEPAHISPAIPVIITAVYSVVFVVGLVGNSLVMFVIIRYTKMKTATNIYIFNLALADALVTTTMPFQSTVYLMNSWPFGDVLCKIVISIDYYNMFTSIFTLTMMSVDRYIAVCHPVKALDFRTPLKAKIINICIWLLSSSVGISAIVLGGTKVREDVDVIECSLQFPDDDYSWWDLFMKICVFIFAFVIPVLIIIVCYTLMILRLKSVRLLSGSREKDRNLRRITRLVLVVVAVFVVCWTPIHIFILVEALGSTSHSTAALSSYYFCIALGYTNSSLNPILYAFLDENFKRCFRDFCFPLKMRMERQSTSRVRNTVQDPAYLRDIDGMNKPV
# Excerpt: as §1
# ADRB1 = ADRB1 (Homo sapiens, UniProt P08588); assay: SAFETYscan cAMP ADRB1 Antagonist; format: cell-based
# Chain of ADRB1 (P08588 whole entry): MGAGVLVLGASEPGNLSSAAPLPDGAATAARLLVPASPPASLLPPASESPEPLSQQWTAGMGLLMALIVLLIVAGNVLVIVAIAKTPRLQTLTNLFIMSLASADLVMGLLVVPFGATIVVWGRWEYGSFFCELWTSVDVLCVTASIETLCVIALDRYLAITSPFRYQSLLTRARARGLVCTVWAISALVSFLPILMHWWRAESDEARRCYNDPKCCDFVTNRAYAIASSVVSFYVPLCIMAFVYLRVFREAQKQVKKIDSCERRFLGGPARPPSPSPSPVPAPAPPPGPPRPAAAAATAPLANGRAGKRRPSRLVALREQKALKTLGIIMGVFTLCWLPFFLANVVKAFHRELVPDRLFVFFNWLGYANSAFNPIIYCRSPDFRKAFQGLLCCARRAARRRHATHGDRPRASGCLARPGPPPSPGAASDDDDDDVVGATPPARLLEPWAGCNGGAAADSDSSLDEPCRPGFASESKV
# Excerpt: (§2) Supplement jm3c00155_si_002.xlsx, sheet "SAFETYScan" | column: RC50 (uM); Hill; Max Response
# CNR1 = CNR1 (Homo sapiens, UniProt P21554); assay: SAFETYscan cAMP CNR1 Antagonist; format: cell-based
# Chain of CNR1 (P21554 whole entry): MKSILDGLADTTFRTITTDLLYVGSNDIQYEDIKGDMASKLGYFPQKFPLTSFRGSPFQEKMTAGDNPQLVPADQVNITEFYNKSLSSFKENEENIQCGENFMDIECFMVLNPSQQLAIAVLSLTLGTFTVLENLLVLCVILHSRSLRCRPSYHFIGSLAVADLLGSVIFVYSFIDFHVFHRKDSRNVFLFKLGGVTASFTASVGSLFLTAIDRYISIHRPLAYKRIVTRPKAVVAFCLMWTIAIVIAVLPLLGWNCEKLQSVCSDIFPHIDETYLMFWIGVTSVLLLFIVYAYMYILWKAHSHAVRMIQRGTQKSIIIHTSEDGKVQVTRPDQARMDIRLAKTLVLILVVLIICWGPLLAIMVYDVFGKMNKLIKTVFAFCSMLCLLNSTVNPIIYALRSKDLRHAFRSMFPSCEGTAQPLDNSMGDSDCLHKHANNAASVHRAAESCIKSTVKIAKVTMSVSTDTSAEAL
# Excerpt: as §1
# DRD1 [4] = molecular target: T2, DRD1; assay: SAFETYscan cAMP DRD1 Antagonist; format: cell-based
# Excerpt: as §2
# GR = molecular target: T4, GR (Homo sapiens, UniProt P04150); assay: SAFETYscan NHR Protein Interaction GR Agonist; format: cell-based
# T4 sequence (P04150 1-777): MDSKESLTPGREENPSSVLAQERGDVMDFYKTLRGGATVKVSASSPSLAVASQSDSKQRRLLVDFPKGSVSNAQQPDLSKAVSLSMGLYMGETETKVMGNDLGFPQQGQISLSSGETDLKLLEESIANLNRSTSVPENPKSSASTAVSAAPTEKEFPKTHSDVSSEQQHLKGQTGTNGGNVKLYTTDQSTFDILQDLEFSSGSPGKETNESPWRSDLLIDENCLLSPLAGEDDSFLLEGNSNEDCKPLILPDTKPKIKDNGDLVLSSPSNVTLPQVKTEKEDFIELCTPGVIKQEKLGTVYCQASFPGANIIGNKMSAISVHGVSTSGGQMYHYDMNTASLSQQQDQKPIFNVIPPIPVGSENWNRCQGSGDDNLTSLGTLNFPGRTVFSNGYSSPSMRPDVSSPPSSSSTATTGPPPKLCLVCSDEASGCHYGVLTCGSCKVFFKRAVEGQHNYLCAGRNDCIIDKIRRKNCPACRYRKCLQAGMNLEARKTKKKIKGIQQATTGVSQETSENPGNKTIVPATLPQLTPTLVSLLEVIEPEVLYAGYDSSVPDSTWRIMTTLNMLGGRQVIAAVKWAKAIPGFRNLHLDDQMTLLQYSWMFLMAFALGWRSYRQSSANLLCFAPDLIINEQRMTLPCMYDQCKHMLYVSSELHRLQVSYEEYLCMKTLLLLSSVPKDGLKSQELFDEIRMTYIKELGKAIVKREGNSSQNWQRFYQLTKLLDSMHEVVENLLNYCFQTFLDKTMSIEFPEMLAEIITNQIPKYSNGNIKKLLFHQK
# Excerpt: as §1
# COX2 = COX2 (Homo sapiens, UniProt P35354); assay: SAFETYscan Enzymatic COX2 Inhibitor; format: biochemical
# Chain of COX2 (P35354 18-604): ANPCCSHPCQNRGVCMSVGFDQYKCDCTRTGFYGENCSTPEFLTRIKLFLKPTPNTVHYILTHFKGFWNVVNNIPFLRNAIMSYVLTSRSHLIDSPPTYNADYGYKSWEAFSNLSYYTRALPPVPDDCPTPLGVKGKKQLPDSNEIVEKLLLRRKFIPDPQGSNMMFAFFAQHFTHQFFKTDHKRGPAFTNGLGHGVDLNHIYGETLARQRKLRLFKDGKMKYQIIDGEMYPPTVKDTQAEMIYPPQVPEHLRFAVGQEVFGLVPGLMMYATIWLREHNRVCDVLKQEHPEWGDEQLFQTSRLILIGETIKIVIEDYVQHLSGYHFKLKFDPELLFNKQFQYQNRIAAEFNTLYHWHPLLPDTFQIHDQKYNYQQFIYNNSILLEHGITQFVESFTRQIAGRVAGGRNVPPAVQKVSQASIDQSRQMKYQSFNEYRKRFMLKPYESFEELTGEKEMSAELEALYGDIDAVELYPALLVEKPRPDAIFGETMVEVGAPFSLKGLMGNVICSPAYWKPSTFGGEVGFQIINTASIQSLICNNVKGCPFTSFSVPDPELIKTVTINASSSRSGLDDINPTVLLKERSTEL
# Excerpt: as §1
# MAOA = MAOA (Homo sapiens, UniProt P21397); assay: SAFETYscan Enzymatic MAOA Inhibitor; format: biochemical
# Chain of MAOA (P21397 whole entry, species assumed): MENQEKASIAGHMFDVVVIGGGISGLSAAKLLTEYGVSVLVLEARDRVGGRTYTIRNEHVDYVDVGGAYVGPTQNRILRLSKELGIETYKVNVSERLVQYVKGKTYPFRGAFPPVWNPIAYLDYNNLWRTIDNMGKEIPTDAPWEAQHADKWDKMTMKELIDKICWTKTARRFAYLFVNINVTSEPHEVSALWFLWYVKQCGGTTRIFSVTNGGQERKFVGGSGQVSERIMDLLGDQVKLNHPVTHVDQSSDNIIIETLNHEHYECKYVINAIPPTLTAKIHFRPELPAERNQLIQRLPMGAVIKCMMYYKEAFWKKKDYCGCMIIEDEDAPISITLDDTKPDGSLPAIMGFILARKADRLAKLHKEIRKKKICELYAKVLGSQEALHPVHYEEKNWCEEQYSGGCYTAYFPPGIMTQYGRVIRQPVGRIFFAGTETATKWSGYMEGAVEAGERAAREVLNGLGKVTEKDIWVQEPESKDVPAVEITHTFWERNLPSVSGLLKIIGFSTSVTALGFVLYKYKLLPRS
# Excerpt: as §1
compound,measurement,setting,value
"Cn1c(=O)c2c(c3cc(Nc4ccnc(F)c4Cl)ccc31)N[C@@H](C1CC1)C(F)(F)CO2 [compound 17, (S)-10-((3-chloro-2-fluoropyridin-4-yl)amino)-2-cyclopropyl-3,3-difluoro-7-methyl-1,2,3,4-tetrahydro-[1,4]oxazepino[2,3-c]quinolin-6(7H)-one]",Percent Control,kinase panel (468) [1],84%
same,kinase panel (468) outcome,kinase panel (468) [2],selective activity and minimal off-target interactions
same,Percent Control,"kinase panel (468) [2]; EGFR(L747-E749del, A750P)",93%
same,Percent Control,"kinase panel (468) [2]; EGFR(L747-S752del, P753S)",67%
same,Percent Control,"kinase panel (468) [2]; EGFR(L747-T751del,Sins)",100%
same,Percent Control,kinase panel (468) [2]; FLT3(ITD),98%
same,Percent Control,"kinase panel (468) [2]; FLT3(ITD,D835V)",100%
same,Percent Control,"kinase panel (468) [2]; FLT3(ITD,F691L)",100%
same,Emax,EDNRA; read-out: Max Response,0%
same,EC50,EDNRA; read-out: RC50 (EC50),> 10 µM
same,IC50,HTR2B,> 10 µM
same,Emax,"HTR2B; HTR2B, Calcium Flux, Antagonist, read-out: Max Response",0%
same,EC50,DRD1 [3],> 10 µM
same,Emax,"DRD1 [3]; DRD1, cAMP, Agonist, read-out: Max Response",0%
same,EC50,HTR1A,> 10 µM
same,Emax,"HTR1A; HTR1A, cAMP, Agonist, read-out: Max Response",45.6%
same,EC50,OPRD1,> 10 µM
same,Emax,"OPRD1; OPRD1, cAMP, Agonist, read-out: Max Response",23.6%
same,EC50,OPRK1,> 10 µM
same,Emax,"OPRK1; OPRK1, cAMP, Agonist, read-out: Max Response",21.1%
same,Hill,ADRB1,1.19
same,Emax,ADRB1; read-out: Max Response,88.7%
same,IC50,ADRB1; read-out: RC50 (IC50),1.6 µM
same,IC50,CNR1,> 10 µM
same,Emax,"CNR1; CNR1, cAMP, Antagonist, read-out: Max Response",0%
same,IC50,DRD1 [4],2.58 µM
same,Hill,"DRD1 [4]; DRD1, cAMP, Antagonist",1.27
same,Emax,"DRD1 [4]; DRD1, cAMP, Antagonist, read-out: Max Response",82.7%
same,Emax,GR; read-out: Max Response,0%
same,EC50,GR; read-out: RC50 (EC50),> 10 µM
same,Emax,COX2; read-out: Max Response,0%
same,IC50,COX2; read-out: RC50 (IC50),> 10 µM
same,Emax,MAOA; read-out: Max Response,0%
same,IC50,MAOA; read-out: RC50 (IC50),> 10 µM
